The structures appear in SMILES notation.

Conditions in one data set: not given
With `c1ccc(-c2ccc(-c3ccc(-c4ccccc4)cc3)cc2)cc1`, the melting point is 320 °C. As to `Brc1cc(Br)cc(Br)c1`, the boiling point was 271 °C, the log10 vapour pressure (mmHg) is -2.82 and the melting point was 123 °C.

For the compound `Clc1cnc(Cl)c(Cl)c1`, the boiling point is 219 °C, the melting point stood at 49 °C and the ready biodegradability entry is “not readily biodegradable”.

For `FC1(F)C(F)(F)C(F)(F)C(F)(F)C(F)(F)C1(F)F`, the boiling point came to 50.6 °C and the log10 vapour pressure (mmHg) was 2.23. `c1ccc(N2CCOCC2)cc1` registered a melting point of 52.5 °C. Still for that read-out and setting: the figure for `CC(=O)NS(=O)(=O)c1ccc(N)cc1` is 183 °C. The compound `CC(=O)OCC(=O)c1ccccc1` returned a boiling point of 270 °C and a melting point of 49 °C. In turn, `COc1ccc2[nH]c(S(=O)Cc3ncc(C)c(OC)c3C)nc2c1` (configuration not stated) showed a melting point of 156 °C. Still for that read-out and setting: the figure for `Nc1ccc(S)cc1` is 46 °C. Take `CC1CCSC1` (configuration not stated): the boiling point is 139 °C.

The compound `Nc1ccc(C(=O)O)c(N)c1` registered a melting point of 140 °C. For `CCC(CC)CC`, the boiling point is 93.5 °C, the log10 biodegradation half-life (days) turned out to be 0.602, the log10 vapour pressure (mmHg) amounted to 1.76 and the melting point is -119 °C.

`CC1=CCC(C(C)(C)O)CC1` (configuration not stated) gave a boiling point of 219 °C, a log10 Henry constant (atm·m³/mol) of -5.65, a log10 vapour pressure (mmHg) of -1.37 and a melting point of 37 °C. Besides, the ready biodegradability entry was “readily biodegradable”. The compound `C#CC(O)CCC` (configuration not stated) returned a boiling point of 142 °C and a melting point of -80 °C. As for `CN(C)C(=O)C(c1ccccc1)c1ccccc1`, the log10 Koc (L/kg) is 2.32, the log10 vapour pressure (mmHg) is -7.52 and the melting point came to 135 °C.

With `CCCCCCCCCCC(C)O` (configuration not stated), the boiling point was determined as 252 °C and the melting point stood at 19 °C.

`CC(=O)Oc1ccc2c3c1O[C@H]1[C@@H](OC(C)=O)C=C[C@H]4[C@@H](C2)N(C)CC[C@@]341` yielded a log10 vapour pressure (mmHg) of -9.12 and a melting point of 173 °C. With `Cc1cc(C)c(C)s1`, the boiling point is 164 °C. In the case of `CC(=O)c1ccc(Br)s1`, the melting point was determined as 94.5 °C.

In turn, `COC(=O)Nc1cccc(OC(=O)Nc2cccc(C)c2)c1` yielded a log10 Koc (L/kg) of 3.38, a log10 vapour pressure (mmHg) of -11 and a melting point of 143 °C.

In turn, `Oc1c(Cl)cc(Cl)cc1Br` yielded a melting point of 68 °C. Compound `CNC(=O)Oc1cc(C(C)(C)C)cc(C(C)(C)C)c1` returned a log10 vapour pressure (mmHg) of -5.7 and a melting point of 103 °C.

With `N#CCCNCCC#N`, the ready biodegradability entry was “not readily biodegradable”.

Consider `Cc1cccc(C(=O)O)c1O`, for which the melting point is 166 °C and the ready biodegradability result is recorded as “not readily biodegradable”. `O=[N+]([O-])c1cccc(F)c1` had a boiling point of 199 °C and a melting point of 41 °C. As to `CCCCNC(=O)c1ccc2cc(O)c(O)cc2c1`, the melting point was determined as 194 °C. On the same count and under the same terms, the figure for `CC(=O)Oc1ccc(C(c2ccc(OC(C)=O)cc2)c2ccccn2)cc1` is 134 °C; for `S=C(Nc1ccccc1)c1ccccc1` it is 102 °C. Regarding `CC=CC(C)C(=O)O` (configuration not stated), the boiling point came out at 199 °C. For `C=CCOC1=NS(=O)(=O)c2ccccc21`, the melting point was 138 °C and the ready biodegradability result is given as “not readily biodegradable”. In the case of `C=CCCCCC(=O)O`, the boiling point is 226 °C and the melting point was -6.5 °C. `C=CCS` had a boiling point of 65 °C and a log10 vapour pressure (mmHg) of 2.72.

In the case of `Nc1ccccc1N`, the boiling point came out at 257 °C, the log10 vapour pressure (mmHg) is -2.69, the melting point worked out at 102 °C and the ready biodegradability result was “not readily biodegradable”. Compound `CNc1ccccc1C(=O)OC` had a boiling point of 255 °C and a melting point of 19 °C.

Consider `CCN(CC)C(=O)/C(Cl)=C(/C)OP(=O)(OC)OC`, for which the log10 vapour pressure (mmHg) was -4.78 and the melting point was -45 °C. Take `O=C1c2ccccc2C(=O)N1SC(F)(Cl)Cl`: the ready biodegradability result is “not readily biodegradable”. In turn, `CNCCN(C)C` registered a boiling point of 117 °C.

`O=C(F)C(F)(F)F` gave a boiling point of -59 °C and a log10 Henry constant (atm·m³/mol) of -3.48.

On to `CN(C)C(=O)NC1CCCCCCC1`, for which the melting point turned out to be 138 °C. As to `Cc1ccc2oc(C)nc2c1`, the boiling point was determined as 218 °C. Still for that read-out and setting: in the case of `FC(F)(Br)C(F)(F)C(F)(F)C(F)(F)C(F)(F)C(F)(F)C(F)(F)Br` it was 159 °C. As to `Nc1ccc(S(=O)(=O)c2ccc([N+](=O)[O-])cc2)cc1`, the melting point amounted to 170 °C. Consider `O=C1OC(C(O)CO)C(O)=C1O` (configuration not stated), for which the melting point is 168 °C.

`O=[N+]([O-])c1ccccc1/C=C/c1ccccc1`: the melting point stood at 73 °C. The same measure, in the same setting: the figure for `NC(=S)Nc1ccccc1` is 154 °C; for `COC(=O)c1c(C)cc(OC(=O)c2c(C)cc(O)c(C=O)c2O)c(C)c1O` it is 195 °C. In turn, `O=C1C[C@H]2CCCC[C@H]2C1` had a boiling point of 222 °C and a melting point of -1 °C. Compound `CC1(N)CCC(C(C)(C)N)CC1` (configuration not stated) gave a melting point of -45 °C. In the case of `O=C([O-])CF.[Na+]`, the melting point was determined as 201 °C.

`CCCCCCc1cccc2ccccc12`: the boiling point came to 322 °C and the melting point was -18 °C.

The data set is the same for the next values; noted with them: fish.
Consider `O=[N+]([O-])c1ccccc1O`, for which the log10 BCF was 1.34. Compound `Clc1c(Cl)c(Cl)c2c(c1Cl)Oc1ccccc1O2` returned a log10 BCF of 3.46 and a log10 biotransformation half-life (days) of 1.02.

`c1ccc2sc(SSc3nc4ccccc4s3)nc2c1` showed a log10 BCF of 1.42 and a log10 biotransformation half-life (days) of -0.91.

Consider `Brc1cc(Br)cc(Br)c1`, for which the log10 BCF amounted to 3.7 and the log10 biotransformation half-life (days) amounted to 1.65. Turning to `N#CCCNCCC#N`, the log10 BCF came to 0.08.
